Laboratory results as given in PubChem BioAssay AID2060910 (Molecular Pharmacology Branch, DTP, NCI, 2025).
pIC50: −log10 of the molar value.

System: 242566-281-R-J2-PDC complex spheroid viability
Test: Anticancer human tumor 242566-281-R-J2-PDC patient-derived pancreatic carcinoma cell line growth inhibition [RAS]
Conditions: for pIC50: curve of first compound; for viability, T/C: stronger effect = lower value
Excerpt: RAS pathway inhibitors in Combinations in Complex Spheroids
A high-throughput screen of multi-cell type tumor spheroids was designed to identify active combinations of RAS pathway inhibitors and targeted small molecules. Complex spheroids include a stromal component modeled by human endothelial cells (HUVEC) and fibroblasts modeled by human mesenchymal stem cells (MSCs). The concentration ranges selected for each drug and investigational agent were based upon clinically achievable concentrations if the clinical Cmax of the agent was known.
Compounds. The drugs and investigational agents: abemaciclib (NSC768073), cobimetinib (NSC768068), divarasib (GDC6063, NSC841802), docetaxel (NSC628503), GDC-1971 (RLY-1971, NSC841576), gemcitabine (NSC613327), inavolisib (NSC800729), ipatasertib (NSC767898), KB-0742 (NSC834161), MRTX-1133 (NSC836407), osimertinib (NSC779217), RMC-4630 (NSC839698), RMC-6236 (NSC851965), RMC-6291 (NSC852671), Ro-3306 (NSC812927), sapanisertib (NSC764658), SN-38 (NSC673596), staurosporine (NSC755774), SY5609 (NSC837396), and tovorafenib (DAY101, NSC766906), were obtained from the National Cancer Institute (NCI) Developmental Therapeutics Program Chemical Repository. The FDA-approved anticancer drug set is available from the NCI Developmental Therapeutics Program. […] The stock solutions were prepared in dimethyl sulfoxide (DMSO, Sigma-Aldrich, St. Louis, MO, cat. D2650) at 800-fold the tested concentration and stored at -70 degrees C prior to their use. All drugs and investigational agents were tested over a range starting from a high concentration at or near the clinical Cmax and decreasing in half-log increments. If the clinical Cmax for an agent had not been determined, the highest concentration tested was 10 microM.
Cell Culture. All cells were maintained in an incubator at 37 degrees C and 5% CO2 with 95% humidity. The PDC lines were cultured according to standard operating procedures established by the NCI PDMR. All PDCs were thawed and cultured in Matrigel-coated flasks prepared with a working solution of 1X Ham's F-12 nutrient mix, without supplementation (Invitrogen, Waltham, MA, cat. 11765054), 100 U/mL penicillin-streptomycin (Invitrogen, cat. 15140122), and 2.5% Matrigel (Corning Inc., Corning, NY, cat. 354248) for the first three passages. The 362531-283-R-J2-PDC and 782815-120-R-J1-PDC lines were cultured in 6C/Colon 1B media, which includes advanced DMEM/F-12 (Thermo Fisher Scientific, cat. 12634028), 10 mM HEPES (Thermo Fisher Scientific, cat. 15630080), 1X GlutaMAX supplement (Thermo Fisher Scientific, cat. 35050061), 0.1 mg/mL primocin (InvivoGen, San Diego, CA, cat. ant-pm-2), 10% defined fetal bovine serum, heat inactivated (HyClone Laboratories Inc., Logan, UT, cat. SH30070.03HI), 50% L-WRN conditioned media (ATCC, cat. CRL-3276), 1.25 mM N-Acetyl-L-cysteine (Sigma-Aldrich, cat. A9165), 10 mM nicotinamide (Sigma-Aldrich, cat. N0636), 1X B-27 supplement (Thermo Fisher Scientific, cat. 17504044), 1X N-2 supplement (Thermo Fisher Scientific, cat. 17502048), 50 ng/mL human EGF (Thermo Fisher Scientific, cat. PHG0311), and 10 microM Y-27632 dihydrochloride (Tocris Bioscience, cat. 1254). The K12877-001-R-J1-PDC line was cultured in 6I media, which includes all 6C/Colon 1B media plus 10 ng/mL human FGF-10 (PeproTech, cat. 100-26), 1 ng/mL human FGF-2 (PeproTech, cat. 100-18B), 1 µM prostaglandin E2 (Tocris Bioscience, cat. 2296), […] hydrocortisone (Sigma-Aldrich, cat. H4001), and […] bovine insulin (Sigma-Aldrich, cat. I6634). The K86415-001-R-J1-PDC line was cultured in 6D media, which includes all 6C/Colon 1B media components minus the L-WRN conditioned media. The 485176-168-R4-J1-PDC was cultured in PANC media, which includes all 6C/Colon 1B media plus 100 ng/mL human FGF-10 (PeproTech, cat. 100-26), 500 nM SB-431542 (Selleckchem, cat. S1067), and 10 nM gastrin (Tocris Bioscience, cat. 3006). […]

[1] = second compound 0.0316 µM, first compound 0.00316 µM
[2] = second compound 0.0316 µM, first compound 0.01 µM
[3] = second compound 0.0316 µM, first compound 0.0316 µM
[4] = second compound 0.0316 µM, first compound 0.1 µM
[5] = second compound 0.0316 µM, first compound 0.316 µM
[6] = second compound 0.0316 µM, first compound 1 µM
[7] = second compound 0.1 µM, first compound 0.00316 µM
[8] = second compound 0.1 µM, first compound 0.01 µM
[9] = second compound 0.1 µM, first compound 0.0316 µM
[10] = second compound 0.1 µM, first compound 0.1 µM
[11] = second compound 0.1 µM, first compound 0.316 µM
[12] = second compound 0.1 µM, first compound 1 µM
[13] = second compound 0.316 µM, first compound 0.00316 µM
[14] = second compound 0.316 µM, first compound 0.01 µM
[15] = second compound 0.316 µM, first compound 0.0316 µM
[16] = second compound 0.316 µM, first compound 0.1 µM
[17] = second compound 0.316 µM, first compound 0.316 µM
[18] = second compound 0.316 µM, first compound 1 µM
[19] = second compound 1 µM, first compound 0.00316 µM
[20] = second compound 1 µM, first compound 0.01 µM
[21] = second compound 1 µM, first compound 0.0316 µM
[22] = second compound 1 µM, first compound 0.1 µM
[23] = second compound 1 µM, first compound 0.316 µM
[24] = second compound 1 µM, first compound 1 µM
[25] = second compound 3.16 µM, first compound 0.00316 µM
[26] = second compound 3.16 µM, first compound 0.01 µM
[27] = second compound 3.16 µM, first compound 0.0316 µM
[28] = second compound 3.16 µM, first compound 0.1 µM
[29] = second compound 3.16 µM, first compound 0.316 µM
[30] = second compound 3.16 µM, first compound 1 µM
[31] = second compound 10 µM, first compound 0.00316 µM
[32] = second compound 10 µM, first compound 0.01 µM
[33] = second compound 10 µM, first compound 0.0316 µM
[34] = second compound 10 µM, first compound 0.1 µM
[35] = second compound 10 µM, first compound 0.316 µM
[36] = second compound 10 µM, first compound 1 µM
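Note: spheroids exposed to compound for 7 days before readout.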
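Throughout, for viability, T/C: 100% = DMSO vehicle control wells.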

With `C=CC(=O)Nc1cc(Nc2nccc(-c3cn(C)c4ccccc34)n2)c(OC)cc1N(C)CCN(C)C` + C#Cc1c(F)ccc2cc(O)cc(-c3ncc4c(N5CC6CCC(C5)N6)nc(OCC56CCCN5CC(F)C6)nc4c3F)c12 the pIC50 (second compound 0.0316 µM) was 6.94, the pIC50 (second compound 0.1 µM) was 7.15 and the pIC50 (second compound 0.316 µM) was 7.06. It also gave a pIC50 (second compound 1 µM) of 7.60, a pIC50 (second compound 3.16 µM) of 7.65 and a pIC50 (second compound 10 µM) of 7.79. For the same compound, the viability, T/C [1] was 81.2%, the viability, T/C [2] was 115% and the viability, T/C [3] was 80.8%. The viability, T/C [4] was 52.9%, the viability, T/C [5] was 43.1% and the viability, T/C [6] was 37.9%. It also gave a viability, T/C [7] of 80.3%, a viability, T/C [8] of 85.2% and a viability, T/C [9] of 60.7%. It also gave a viability, T/C [10] of 46.9%, a viability, T/C [11] of 41.3% and a viability, T/C [12] of 35.2%. For the same compound, the viability, T/C [13] was 77.6%, the viability, T/C [14] was 75.2% and the viability, T/C [15] was 66%. The viability, T/C [16] was 47.1%, the viability, T/C [17] was 40.7% and the viability, T/C [18] was 35.3%. It also gave a viability, T/C [19] of 68.3%, a viability, T/C [20] of 60.2% and a viability, T/C [21] of 46.7%. It also gave a viability, T/C [22] of 42.1%, a viability, T/C [23] of 36.4% and a viability, T/C [24] of 38.5%. It also gave a viability, T/C [25] of 60.2%, a viability, T/C [26] of 58.6% and a viability, T/C [27] of 48%. It also gave a viability, T/C [28] of 41%, a viability, T/C [29] of 36.1% and a viability, T/C [30] of 37.7%. For the same compound, the viability, T/C [31] was 57.1%, the viability, T/C [32] was 57.1% and the viability, T/C [33] was 44.6%. The viability, T/C [34] was 40.1%, the viability, T/C [35] was 39.8% and the viability, T/C [36] was 36.7%.

Work on `CC(Nc1ccc2c(c1)OCCn1cc(N3C(=O)OCC3C(F)F)nc1-2)C(N)=O` (stereo unspecified) + C#Cc1c(F)ccc2cc(O)cc(-c3ncc4c(N5CC6CCC(C5)N6)nc(OCC56CCCN5CC(F)C6)nc4c3F)c12 yielded a pIC50 (second compound 0.0316 µM) of 6.36, a pIC50 (second compound 0.1 µM) of 6.74 and a pIC50 (second compound 0.316 µM) of 6.97. For the same compound, the pIC50 (second compound 1 µM) was 7.22, the pIC50 (second compound 3.16 µM) was greater than 7.50 and the pIC50 (second compound 10 µM) was greater than 7.50. For the same compound, the viability, T/C [3] was 101%, the viability, T/C [4] was 82.8% and the viability, T/C [5] was 56.6%. For the same compound, the viability, T/C [6] was 32.5%, the viability, T/C (second compound 0.0316 µM, first compound 3.16 µM) was 22.3% and the viability, T/C (second compound 0.0316 µM, first compound 10 µM) was 14.2%. The viability, T/C [9] was 75%, the viability, T/C [10] was 63.7% and the viability, T/C [11] was 37.3%. For the same compound, the viability, T/C [12] was 22.4%, the viability, T/C (second compound 0.1 µM, first compound 3.16 µM) was 13.2% and the viability, T/C (second compound 0.1 µM, first compound 10 µM) was 8.11%. It also gave a viability, T/C [15] of 68%, a viability, T/C [16] of 51.2% and a viability, T/C [17] of 24.8%. For the same compound, the viability, T/C [18] was 8.79%, the viability, T/C (second compound 0.316 µM, first compound 3.16 µM) was 7.1% and the viability, T/C (second compound 0.316 µM, first compound 10 µM) was 4.15%. The viability, T/C [21] was 58.1%, the viability, T/C [22] was 43.7% and the viability, T/C [23] was 23%. For the same compound, the viability, T/C [24] was 9.54%, the viability, T/C (second compound 1 µM, first compound 3.16 µM) was 6.78% and the viability, T/C (second compound 1 µM, first compound 10 µM) was 3.29%. It also gave a viability, T/C [27] of 46.5%, a viability, T/C [28] of 39.2% and a viability, T/C [29] of 14%. It also gave a viability, T/C [30] of 9.39%, a viability, T/C (second compound 3.16 µM, first compound 3.16 µM) of 5.47% and a viability, T/C (second compound 3.16 µM, first compound 10 µM) of 3.71%. It also gave a viability, T/C [33] of 44%, a viability, T/C [34] of 32.7% and a viability, T/C [35] of 19.8%. It also gave a viability, T/C [36] of 6.3%, a viability, T/C (second compound 10 µM, first compound 3.16 µM) of 5.27% and a viability, T/C (second compound 10 µM, first compound 10 µM) of 2.24%.

`O=C(c1ccc(F)c(F)c1Nc1ccc(I)cc1F)N1CC(O)([C@@H]2CCCCN2)C1` + C#Cc1c(F)ccc2cc(O)cc(-c3ncc4c(N5CC6CCC(C5)N6)nc(OCC56CCCN5CC(F)C6)nc4c3F)c12 showed a pIC50 (second compound 0.0316 µM) of 7.08, a pIC50 (second compound 0.1 µM) of 7.25 and a pIC50 (second compound 0.316 µM) of 7.60. For the same compound, the pIC50 (second compound 1 µM) was 8.07, the pIC50 (second compound 3.16 µM) was 8.38 and the pIC50 (second compound 10 µM) was greater than 8.50. It also gave a viability, T/C [1] of 89.3%, a viability, T/C [2] of 90.4% and a viability, T/C [3] of 69.1%. It also gave a viability, T/C [4] of 47.9%, a viability, T/C [5] of 38.6% and a viability, T/C [6] of 44.2%. For the same compound, the viability, T/C [7] was 76.1%, the viability, T/C [8] was 73.6% and the viability, T/C [9] was 57.7%. The viability, T/C [10] was 42%, the viability, T/C [11] was 40.9% and the viability, T/C [12] was 38.5%. The viability, T/C [13] was 73%, the viability, T/C [14] was 59.7% and the viability, T/C [15] was 49.9%. It also gave a viability, T/C [16] of 37.3%, a viability, T/C [17] of 32.2% and a viability, T/C [18] of 39.9%. It also gave a viability, T/C [19] of 60.1%, a viability, T/C [20] of 49.5% and a viability, T/C [21] of 44.8%. For the same compound, the viability, T/C [22] was 30.4%, the viability, T/C [23] was 35.1% and the viability, T/C [24] was 38.6%. For the same compound, the viability, T/C [25] was 50.8%, the viability, T/C [26] was 48.6% and the viability, T/C [27] was 34%. It also gave a viability, T/C [28] of 29.4%, a viability, T/C [29] of 34.9% and a viability, T/C [30] of 38.2%. For the same compound, the viability, T/C [31] was 52.6%, the viability, T/C [32] was 41.3% and the viability, T/C [33] was 34.1%. It also gave a viability, T/C [34] of 37%, a viability, T/C [35] of 36.8% and a viability, T/C [36] of 37.5%.
